Data from paper PMC5369982, “Near infrared fluorescent imaging of choline kinase alpha expression and inhibition in breast tumors” (Oncotarget, 2017).
Where two headings read alike, the source gives them in different places.

Experiments:
4175-Luc+ tumors [1] = assay: NIRF optical imaging, JAS239 biodistribution in mice bearing 4175-Luc+ tumors; format: in vivo, mouse
Protocol: Bioluminescence and NIRF (Ex. 745 nm; Em. 800 nm) images were acquired in an IVIS Spectrum (PerkinElmer). NIRF is measured in Average Radiant Efficiency, photons per second (p/sec) corrected for the area of the region of interest (ROI) and the efficiency of the lamp (μ Watt *cm^−2 / steradian^-1). For bioluminescence imaging, mice were injected i.p. with 150 mg/kg of firefly D-luciferin (Biosynth). Bioluminescent Radiance (p/sec/cm^2/sr) was monitored by time-course imaging until the luminescence intensity plateaued. For NIRF imaging, mice were injected i.v. with 100 μL vehicle or JAS239 (20 nmol). Two vehicle formulations were tested in mice bearing 4175-Luc+ tumors: the first was 0.1% Tween-80 / 50 mM Tris-HCl, and the second was 1% ethanol diluted in 0.9% saline. ROIs with a 20% threshold were created from the bioluminescence image using the LivingImage software (PerkinElmer) program, and this region was used to analyze intratumoral JAS239 accumulation in the NIRF images. Resected organs were placed in 24-well plates and NIRF was measured to quantify JAS239 biodistribution. For diagnostic studies, mice bearing both MCF7-EV and MCF7-CK+ tumors of approximately 200 μL were injected with 20 nmol JAS239 in Tween-80/Tris (8 mice) or in ethanol/saline (7 mice). The cohorts were euthanized after 90 min / 24h respectively, and tumor-bearing flanks were surgically exposed. NIRF from the tumor-bearing fat pads was subtracted from background muscle signal and the Average Radiant Efficiency measured.

[2] = system: MCF7-EV and MCF7-CK+ tumors; assay: NIRF optical imaging of JAS239 in mice bearing MCF7-EV and MCF7-CK+ tumors; format: in vivo, mouse
Protocol: (§1) All animal studies were approved by the Institutional Animal Care and Use Committee of the University of Pennsylvania. Six week old female athymic nude Foxn1^nu/nu mice (National Cancer Institute) were housed in a temperature-controlled environment with 12 h light/dark cycle. Anesthesia was induced using 2% isoflurane in oxygen for all experiments. For MCF7 tumors, mice were supplemented with 60-day release 0.36 mg 17β-estradiol tablets (Innovative Research of America) using a trochar in the nape of the neck. After 1 week, 4 × 10^6 cells in Matrigel (BD Biosciences) were inoculated into the left (CK+) and contralateral (EV) mammary fat pads. Subcutaneous xenografts, including those analyzed in MRI/MRS studies, were grown on the shoulder to allow for cloaking of the kidneys during optical imaging studies. Tumor growth was determined via caliper measurement of three orthogonal dimensions and volume calculated as length * width * height * π/6.
Bioluminescence and NIRF (Ex. 745 nm; Em. 800 nm) images were acquired in an IVIS Spectrum (PerkinElmer). NIRF is measured in Average Radiant Efficiency, photons per second (p/sec) corrected for the area of the region of interest (ROI) and the efficiency of the lamp (μ Watt *cm^−2 / steradian^-1). […] Bioluminescent Radiance (p/sec/cm^2/sr) was monitored by time-course imaging until the luminescence intensity plateaued. […]

4175-Luc+ tumors [3] = assay: Tumor growth inhibition; format: in vivo, mouse; conditions: 5-day i.p. regimen from day 3 after inoculation; MN58b 2 mg/kg/day, JAS239 4 mg/kg/day
Protocol: as §1
A cohort of 15 mice was inoculated with 4175-Luc+ tumors. Beginning 3 days post-inoculation, animals received a 100-μL i.p. injection of either control DMSO/saline, 2 mg/kg MN58b or 4 mg/kg JAS239 in DMSO/saline daily for 5 days. Tumor volumes were assessed by caliper measurement.

ChoKα [4] = molecular target: T1, ChoKα (Homo sapiens, UniProt P35790); assay: Confocal microscopy colocalization of JAS239 with anti-ChoKα antibody in fixed MDA-MB-231 cells; format: cell-based; set-up: endogenous in cells; host or cells: MDA-MB-231; conditions: cells pre-treated with ChoKα antibody
T1 sequence (P35790 whole entry): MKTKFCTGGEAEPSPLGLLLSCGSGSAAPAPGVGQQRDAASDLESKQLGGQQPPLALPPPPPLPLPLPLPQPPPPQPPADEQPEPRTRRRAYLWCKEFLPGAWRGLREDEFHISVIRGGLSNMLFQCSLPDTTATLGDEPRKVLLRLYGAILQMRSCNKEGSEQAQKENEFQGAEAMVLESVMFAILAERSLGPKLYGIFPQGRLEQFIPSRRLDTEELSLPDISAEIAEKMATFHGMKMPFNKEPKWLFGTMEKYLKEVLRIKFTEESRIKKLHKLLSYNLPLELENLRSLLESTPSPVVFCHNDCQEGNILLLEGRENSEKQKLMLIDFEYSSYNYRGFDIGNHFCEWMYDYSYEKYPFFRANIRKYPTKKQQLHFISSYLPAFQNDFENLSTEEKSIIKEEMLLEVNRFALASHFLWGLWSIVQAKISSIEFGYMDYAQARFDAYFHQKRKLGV
Protocol: MDA-MB-231 cells plated on sterile glass coverslips were fixed in 4% paraformaldehyde, permeabilized in 0.2% Triton X-100, and blocked in 1% BSA. Staining with 0 or 200 μM JAS239 was performed 30 min prior or 1 h after application of rabbit anti-human ChoKα antibody (ab38290; Abcam, 1:1000 dilution). Coverslips were then stained with goat anti-rabbit antibody conjugated to Texas Red (Vector Laboratories; TI-1000, 1:500), dehydrated, and mounted with VectaShield (Vector Laboratories). Confocal micrographs were acquired on a Zeiss LSM 510META NLC using excitation (Ex.) 543 nm and emission (Em.) 565–615 nm for Texas Red and Ex. 633 nm and Em. > 650 nm for JAS239. The Coloc 2 FIJI software plug-in was used to assess colocalization of the anti-ChoKα antibody with JAS239 by calculating Pearson's Correlation Coefficients and Manders’ Colocalization Coefficients for at least 3 separate ROIs. […]
strongly correlated with ChoKα, unless fixed cells are pre-incubated with ChoKα antibody (Ab). (B) Manders’ Colocalization Coefficients calculated for the Texas-Red channel confirm that the majority of ChoKα is bound by JAS239 when JAS239 is present. (C) Manders’ Colocalization Coefficients calculated for the JAS239 channel indicate that the majority of JAS239 that is present intracellularly is co-distributed with ChoKα. Values represent ± SEM for 3 separate fields of view. […]

ChoKα [5] = molecular target: T1, ChoKα; assay: ChoKα activity assay (14C-choline phosphorylation to 14C-PC in cells); format: cell-based; set-up: endogenous in cells; host or cells: MCF7-EV, MCF7-CK+ (stably overexpressing ChoK), MDA-MB-231, 4175-Luc+; conditions: analyzed after 2 h, ± SEM, 3 experiments, read-out: IC50 (14C-PC production)
Protocol: Cells in 6-well plates (1.0 × 10^6 cells/well) were incubated for 24 h then treated with JAS239 or MN58b. After 1 h, cells were spiked for 1 h with 0.5 μCi/mL [methyl-^14C]-choline (PerkinElmer) and fixed with trichloroacetic acid. Aqueous cellular extracts were separated by thin layer chromatography (TLC) and the ^14C-PC production measured by autoradiography on a Fujifilm FLA-7000 using previously described methods. […]
Supplementary Figure 1: Characterization of ChoKα in a panel of human breast cancer cell lines. (A) Determination of
ChoKα expression by Western blot confirms elevated ChoKα protein found in MCF7-CK+ cells. (B) Conversion of 14C-choline to 14C-PC
follows the pattern expected from ChoKα expression levels in (A). (C–F) Dose-response curves comparing the effect of MN58b ( C, D) or
JAS239 (E, F) on 14C-choline phosphorylation in MCF7-EV and MCF7-CK+ cells (C, E) or MDA-MB-231 and 4175-Luc+ cells (D, F).
Values are reported as a percentage of the untreated EV group (for MCF7 cells) or untreated MDA-MB-231 group (for MDA-MB-231 and
4175-Luc+), and represent ± SEM for 3 separate experiments.

[6] = system: MDA-MB-231 tumor xenografts; set-up: method as in PMID 16397258; conditions: 4 mg/kg; cited from earlier work

Compound	Initial hepatic clearance time (4175-Luc+ tumors [1]; 20 nmol i.v. in Tween-80/Tris buffer)	Tumor NIRF emission at 800 nm vs. control (4175-Luc+ tumors [1]; 20 nmol i.v. in Tween-80/Tris buffer, 90 min)	Time of maximum NIRF contrast between tumor and background (4175-Luc+ tumors [1]; 20 nmol i.v. in Tween-80/Tris buffer, post-injection) [min]	Time of highest tumor signal to noise (4175-Luc+ tumors [1]; 20 nmol i.v. in ethanol/saline vehicle, subcutaneous tumors) [h]	Tumor-to-muscle ratio ex vivo (4175-Luc+ tumors [1]; ethanol/saline vehicle, 24 h post-injection)	Hepatic signal compared to the Tween-80/Tris vehicle (4175-Luc+ tumors [1]; ethanol/saline vehicle, 24 h post-injection, resected organs)	Tumor/normal tissue fluorescence ratio [2]	Tumor volume compared to control animals (4175-Luc+ tumors [3])	JAS239 retention after ChoKα antibody pre-treatment (ChoKα [4])	IC50 (ChoKα [5]; 4175-Luc+ cells) [µM]	IC50 (ChoKα [5]; MCF7-CK+ cells) [µM]	IC50 (ChoKα [5]; MCF7-EV cells) [µM]	IC50 (ChoKα [5]; MDA-MB-231 cells) [µM]	PC levels in tumor xenografts [6]
CC1(C)C(=C/C=C/C=C/C=C/C2=[N+](CCO)c3ccccc3C2(C)C)N(CCO)c2ccccc21 [JAS239]	approximately 75 min	an order of magnitude stronger	90	24	nearly two-fold	dropped nearly one order of magnitude	2.8 ± 0.2	significantly smaller tumor volumes	marked reduction in JAS239 retention	9.89 ± 0.24	10.3 ± 2.48	11.1 ± 5.64	9.92 ± 0.22	
MN58b [reference compound]								significantly smaller tumor volumes		4.59 ± 0.55	2.36 ± 0.28	3.85 ± 0.42	4.36 ± 1.37	lower PC levels
